Assay results from US8933105B2, “Pyrrole compounds” (Takeda Pharmaceutical Company Limited, priority 2007, dated 2015).
Structures can show the parent of a compound that is named as a salt.

How the values were obtained:
[1] = molecular target: T1, proton, potassium-adenosine triphosphatase (H+,K+-ATPase) (Sus scrofa, UniProt P19156); experiment: Proton potassium-adenosine triphosphatase (H+,K+-ATPase) inhibitory activity test; assay type: biochemical; details: swine gastric microsomal fraction, pH 6.5, 37° C.
T1 construct: a gastric mucous membrane microsomal fraction was prepared from the stomach of swine; from tissue; host or cells: swine stomach, gastric mucous membrane microsomal fraction
Protocol: Proton Potassium-Adenosine Triphosphatase (H^+,K^+-ATPase) Inhibitory Activity Test
According to the method [Biochim. Biophys. Acta, 728, 31 (1983)] of Wallmark et al., a gastric mucous membrane microsomal fraction was prepared from the stomach of swine. First, the stomach was removed, washed with tap water, immersed in 3 mol/L brine, and the surface of the mucous membrane was wiped with a paper towel. The gastric mucous membrane was detached, chopped, and homogenized in a 0.25 mol/L saccharose solution (pH 6.8) containing 1 mmol/L EDTA and 10 mmol/L tris-hydrochloric acid using polytron (Kinematica). The obtained homogenate was centrifuged at 20,000×g for 30 min and the supernatant was centrifuged at 100,000×g for 90 min. The precipitate was suspended in 0.25 mol/L saccharose solution, superimposed on a 0.25 mol/L saccharose solution containing 7.5% Ficoll, and centrifuged at 100,000×g for 5 hr. The fraction containing the interface between the both layers was recovered, and centrifugally washed with 0.25 mol/L saccharose solution.
The obtained microsomal fraction was used as a proton, potassium-adenosine triphosphatase standard product.
To 40 μL of a 50 mmol/L HEPES-tris buffer (5 mmol/L magnesium chloride, 10 mmol/L potassium chloride, 10 μmol/L valinomycin, pH=6.5) containing 2.5 μg/mL (based on the protein concentration) of the enzyme standard product was added a test compound (5 μL) dissolved in a 10% aqueous dimethyl sulfoxide solution, and the mixture was incubated at 37° C. for 30 min. The enzyme reaction was started by adding 5 μL of a 2 mmol/L adenosine triphosphate tris salt solution (50 mmol/L HEPES-tris buffer (5 mmol/L magnesium chloride, pH 6.5)). The enzyme reaction was carried out at 37° C. for 20 min, and 15 μL of a malachite green solution (0.12% malachite green solution in sulfuric acid (2.5 mol/L), 7.5% ammonium molybdate and 11% Tween 20 were mixed at a ratio of 100:25:2) was added to quench the reaction. After allowing to stand at room temperature for 15 min, the resulting reaction product of inorganic phosphorus with malachite green was calorimetrically determined at a wavelength of 610 nm. In addition, the amount of the inorganic phosphoric acid in the reaction solution free of potassium chloride was measured in the same manner, which was subtracted from the inorganic phosphoric acid amount in the presence of potassium chloride to determine the proton, potassium-adenosine triphosphatase activity. The inhibitory rate (%) was determined from the activity value of the control and the activity values of various concentrations of the test compound, and the 50% inhibitory concentration (IC50) of the proton, potassium-adenosine triphosphatase was determined.

HepG2 = experiment: ATP content test (intracellular ATP content, ATPLite); assay type: cell-based, Human; details: HepG2, 30 μM, culture for one day, relative value to control (without addition of drug)
Protocol: (§1) Human liver cancer-derived cell line HepG2 (ATCC No. HB-8065) was passaged using Dulbecco's Modified Eagle medium (DMEM; Invitrogen) containing 10% fetal bovine serum (FBS; TRACE SCIENTIFIC LTD.), 1 mmol/L sodium pyruvate (Invitrogen), 2 mmol/L L-glutamine (Invitrogen), 50 IU/mL penicillin (Invitrogen) and 50 μg/mL streptomycin (Invitrogen) at 5% CO2, 37° C. The test reagent was prepared with DMSO to 10 mM, and further diluted with DMEM medium containing 0.5% FBS, 1 mmol/L sodium pyruvate, 2 mmol/L L-glutamine, 50 IU/mL penicillin and 50 μg/mL streptomycin to a final concentration of DMSO of 0.1%. HepG2 (2×10^4 cells/well) was cultured on a 96 well white plate (Costar) with the test reagent at 5% CO2, 37° C. After culture for one day, the intracellular ATP content was measured using ATPLite™ (PerkinElmer Life Sciences). The results are shown in Table 26 (n≧3, average value±SD) as a relative value (%) to control (without addition of drug) at 30 μM.

Caspase-3/7 = Caspase-3/7 activity test (Caspase-Glo 3/7 Assay); assay type: cell-based, Human; details: HepG2, 30 μM, culture for one day, relative to maximum with Staurosporine (100%) and no test reagent (0%)
Protocol: as §1
Caspase-3/7 Activity Test
The Caspase-3/7 activity in the cells cultured for one day by a method similar to that in Experimental Example 2 was measured using Caspase-Glo 3/7 Assay (Promega). The results are shown in Table 26 (n≧3, average value±SD) as relative activity (%) of each reagent based on the maximum value of Caspase-3/7 activity when exposed to Staurosporine (100%), and the activity without addition of a test reagent (0%).

T1 sequence (P19156 2-1034 limits assumed): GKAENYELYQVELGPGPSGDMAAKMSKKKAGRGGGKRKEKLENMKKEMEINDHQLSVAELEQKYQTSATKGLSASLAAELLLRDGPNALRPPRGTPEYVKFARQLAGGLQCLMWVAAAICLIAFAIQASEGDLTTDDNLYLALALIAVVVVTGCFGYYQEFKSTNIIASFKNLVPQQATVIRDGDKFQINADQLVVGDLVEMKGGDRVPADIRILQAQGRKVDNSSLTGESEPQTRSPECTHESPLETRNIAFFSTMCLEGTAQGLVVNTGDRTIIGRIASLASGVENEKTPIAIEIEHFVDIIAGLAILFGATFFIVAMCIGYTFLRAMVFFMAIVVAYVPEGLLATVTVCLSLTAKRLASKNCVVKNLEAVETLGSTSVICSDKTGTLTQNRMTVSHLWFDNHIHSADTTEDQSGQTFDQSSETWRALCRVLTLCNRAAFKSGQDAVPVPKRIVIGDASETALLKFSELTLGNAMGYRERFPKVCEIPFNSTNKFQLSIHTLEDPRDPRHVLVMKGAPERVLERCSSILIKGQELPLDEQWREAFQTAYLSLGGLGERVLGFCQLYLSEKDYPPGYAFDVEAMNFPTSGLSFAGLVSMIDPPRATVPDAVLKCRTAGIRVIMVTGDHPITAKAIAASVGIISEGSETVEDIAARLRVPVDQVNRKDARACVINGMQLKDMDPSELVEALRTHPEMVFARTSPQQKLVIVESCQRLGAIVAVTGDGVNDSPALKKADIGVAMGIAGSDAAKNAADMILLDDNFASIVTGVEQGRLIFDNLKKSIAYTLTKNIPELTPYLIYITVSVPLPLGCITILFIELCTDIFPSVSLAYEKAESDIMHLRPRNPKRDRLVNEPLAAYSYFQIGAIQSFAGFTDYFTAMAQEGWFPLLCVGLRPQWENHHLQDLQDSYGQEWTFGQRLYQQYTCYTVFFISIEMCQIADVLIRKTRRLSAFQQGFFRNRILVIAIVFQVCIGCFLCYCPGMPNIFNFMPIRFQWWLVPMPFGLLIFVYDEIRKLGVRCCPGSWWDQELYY
T1 sequence (P18434 whole entry partner): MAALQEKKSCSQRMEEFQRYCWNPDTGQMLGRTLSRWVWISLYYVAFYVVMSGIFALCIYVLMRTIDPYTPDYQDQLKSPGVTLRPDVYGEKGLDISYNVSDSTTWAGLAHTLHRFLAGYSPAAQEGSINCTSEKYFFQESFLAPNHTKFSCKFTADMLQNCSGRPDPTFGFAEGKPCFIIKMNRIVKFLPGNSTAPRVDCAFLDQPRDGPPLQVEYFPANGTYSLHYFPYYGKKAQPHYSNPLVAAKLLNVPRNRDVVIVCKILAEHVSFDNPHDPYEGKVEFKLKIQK

IC50 [1] [nM]	ATP content (%, 30 μM) (HepG2) [%]	Caspase-3/7 activity (%, 30 μM) (Caspase-3/7) [%]	SMILES
26	88.1	−1.3	CNCc1cc(-c2cccnc2F)n(S(=O)(=O)c2ccccc2)c1.O=C(O)/C=C/C(=O)O [Example 1, 1-[5-(2-fluoropyridin-3-yl)-1-(phenylsulfonyl)-1H-pyrrol-3-yl]-N-methylmethanamine fumarate]
59	91.4	−0.5	CNCc1cc(-c2cccnc2F)n(S(=O)(=O)c2ccco2)c1.O=C(O)/C=C/C(=O)O [Example 3, 1-[5-(2-fluoropyridin-3-yl)-1-(2-furylsulfonyl)-1H-pyrrol-3-yl]-N-methylmethanamine fumarate]
90	103.9	0.2	CNCc1cn(S(=O)(=O)c2cccnc2)c(-c2cccnc2F)c1F.O=C(O)/C=C/C(=O)O [Example 8, 1-[4-fluoro-5-(2-fluoropyridin-3-yl)-1-(pyridin-3-ylsulfonyl)-1H-pyrrol-3-yl]-N-methylmethanamine fumarate]
120	87.7	0.2	CNCc1cc(-c2ccc(C)nc2F)n(S(=O)(=O)c2cccnc2)c1.O=C(O)/C=C/C(=O)O [Example 13, 1-[5-(2-fluoro-6-methylpyridin-3-yl)-1-(pyridin-3-ylsulfonyl)-1H-pyrrol-3-yl]-N-methylmethanamine fumarate]
43	90.4	−0.8	CNCc1cc(-c2cccnc2Cl)n(S(=O)(=O)c2ccccc2)c1.Cl [Example 15, 1-[5-(2-chloropyridin-3-yl)-1-(phenylsulfonyl)-1H-pyrrol-3-yl]-N-methylmethanamine hydrochloride]
120	97.1	0	CNCc1cc(-c2cccnc2C#N)n(S(=O)(=O)c2ccccc2)c1.Cl [Example 16, 3-{4-[(methylamino)methyl]-1-(phenylsulfonyl)-1H-pyrrol-2-yl}pyridine-2-carbonitrile hydrochloride]
57	86.6	−0.2	CNCc1cc(-c2cccnc2F)n(S(=O)(=O)c2ccc(F)cc2)c1.O=C(O)/C=C/C(=O)O [Example 20, 1-{1-[(4-fluorophenyl)sulfonyl]-5-(2-fluoropyridin-3-yl)-1H-pyrrol-3-yl}-N-methylmethanamine fumarate]
110	85.2	−0.2	CNCc1cn(S(=O)(=O)c2ccccc2)c(-c2cccnc2F)c1C.Cl [Example 26, 1-[5-(2-fluoropyridin-3-yl)-4-methyl-1-(phenylsulfonyl)-1H-pyrrol-3-yl]-N-methylmethanamine hydrochloride]
71			CNCc1cn(S(=O)(=O)c2cccnc2)c(-c2cccnc2F)c1F [Example 28, 1-[4-fluoro-5-(2-fluoropyridin-3-yl)-1-(pyridin-3-ylsulfonyl)-1H-pyrrol-3-yl]-N-methylmethanamine 0.5 fumarate]
26	97.3	−0.6	CNCc1cn(S(=O)(=O)c2ccccc2)c(-c2cccnc2F)c1F [Example 30, 1-[4-fluoro-5-(2-fluoropyridin-3-yl)-1-(phenylsulfonyl)-1H-pyrrol-3-yl]-N-methylmethanamine 0.5 fumarate]
130	93.4	−0.4	CNCc1cn(S(=O)(=O)c2cccnc2)c(-c2cccnc2Cl)c1F.O=C(O)/C=C/C(=O)O [Example 38, 1-[5-(2-chloropyridin-3-yl)-4-fluoro-1-(pyridin-3-ylsulfonyl)-1H-pyrrol-3-yl]-N-methylmethanamine fumarate]
